Assays:
PAD1 [1] = molecular target: T1, PAD1 (Homo sapiens, UniProt Q9ULC6); assay: Limit of detection for in vitro labelling of recombinant PAD1 by probe; assay type: binding; conditions: 10 μM probe, conjugated with TAMRA-N3 using CuAAC
T1 construct: made in house
T1 sequence (Q9ULC6 1-663): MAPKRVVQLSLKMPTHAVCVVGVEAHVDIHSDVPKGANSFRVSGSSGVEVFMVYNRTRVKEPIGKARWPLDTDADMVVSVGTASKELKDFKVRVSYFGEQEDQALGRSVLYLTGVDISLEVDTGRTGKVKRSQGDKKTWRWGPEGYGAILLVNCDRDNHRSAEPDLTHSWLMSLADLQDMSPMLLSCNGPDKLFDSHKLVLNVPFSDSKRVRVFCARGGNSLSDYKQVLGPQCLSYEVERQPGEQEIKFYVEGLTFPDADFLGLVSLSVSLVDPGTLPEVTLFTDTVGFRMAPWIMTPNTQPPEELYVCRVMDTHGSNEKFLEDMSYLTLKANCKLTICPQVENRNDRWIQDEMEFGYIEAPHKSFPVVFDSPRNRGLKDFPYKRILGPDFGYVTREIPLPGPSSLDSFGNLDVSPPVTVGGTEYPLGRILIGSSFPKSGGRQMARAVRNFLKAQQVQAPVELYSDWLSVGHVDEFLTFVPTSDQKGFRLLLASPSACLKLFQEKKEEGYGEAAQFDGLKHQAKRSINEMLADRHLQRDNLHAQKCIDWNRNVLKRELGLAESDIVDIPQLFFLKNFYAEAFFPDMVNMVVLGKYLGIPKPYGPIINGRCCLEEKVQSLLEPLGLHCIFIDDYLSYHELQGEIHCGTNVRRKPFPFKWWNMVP
Procedure: Dose-dependent in vitro Labelling of Recombinant PADs with 21 and 22. A PAD (1.4 μM) was added to a prewarmed (10 min at 37° C.) reaction mixture (25 mM TRIS pH 7.4, 10 mM NaCl, and 5 mM CaCl2) containing various concentrations of 21 or 22 (or equal volume of DMSO for control). The mixture was incubated at 37° C. for 15 min. Then TAMRA-N3 (50 μM), TCEP (1 mM), TBTA (0.3 mM) and freshly prepared copper (II) sulphate (1 mM) were sequentially added to the reaction mixture and the tubes were gently tumbled at room temperature for 2 h. Then the reactions were quenched with 5×SDS-PAGE loading dye, heated at 95° C. for 15 min and loaded onto 4-15% gradient SDS-PAGE gel. Protein bands were visualized by recording in-gel fluorescence using a typhoon scanner (approximate excitation/emission maxima ˜546/579, respectively). All the experiments were performed at least in duplicate.
Limit of Detection for in vitro Labelling of Recombinant PADs with 21 and 22. Various concentrations of PAD were added to prewarmed (10 min at 37° C.) reaction mixtures (25 mM TRIS pH 7.4, 10 mM NaCl, 5 mM CaCl2) containing 10 μM of 21 or 22. […] Protein bands were visualized by recording in-gel fluorescence using a typhoon scanner (approximate excitation/emission maxima ˜546/579, respectively). […]

PAD1 [2] = molecular target: T1, PAD1; assay: Inhibition of RFA labelling of PAD1 (ABPP assay); assay type: binding; conditions: PAD1 2 μM, RFA 2 μM, 37° C., 2 h
Description: The halogen-dependent change in potency of the PAD1 inhibitors was further confirmed using an activity-based protein profiling (ABPP) assay that uses the PAD-targeted probe, rhodamine-conjugated F-amidine (RFA, FIG. 2C).
RFA enables the covalent modification and fluorescent labelling of PADs with the help of its fluoroacetamidine and rhodamine moieties, respectively. However, in the presence of a PAD inhibitor that can compete for binding to the active site, RFA labelling is inhibited. […] Similar results were obtained with the chloroacetamidine-containing compounds 2, 12, 14 and 8 (FIG. 9).
RFA labelling. RFA labelling of PAD1 in the presence of inhibitors followed a protocol similar to that established for PAD2. (Mondal, et al. ACS Chem. Biol. 2018, 13, 1057-1065.) Briefly, PAD1 (2 μM final) was added to prewarmed (10 min at 37° C.) reaction mixture (100 mM TRIS pH 7.4, 50 mM NaCl, 10 mM CaCl2, and 2 mM DTT in a final volume of 30 μL) containing RFA (2 μM final) and DMSO or various concentrations of the inhibitor. […] In-gel fluorescence of the protein bands was recorded using a typhoon scanner (excitation/emission maxima of ˜546/579, respectively) and was quantified using ImageJ software. IC50 values of the inhibitors were obtained by plotting the relative decrease in the fluorescence intensity of protein bands against the concentration of inhibitor. […]

Q: How did the “limit of detection (LOD) of recombinant PAD1” value (PAD1 [1]) turn out when `C#Cc1c(I)cc(C(=O)N[C@@H](CCCNC(=N)CF)c2nc3ccccc3[nH]2)c(O)c1I` [Compound 21] was run?
A: The value was 4.3 pmol.

Q: With `N=C(CF)NCCC[C@H](NC(=O)c1cc(I)cc(I)c1O)c1nc2ccccc2[nH]1` [Compound 1] as the compound, how does the IC50 (PAD1 [2]) read?
A: The IC50 was 18 µM.

From patent US12448358B2, “Inhibitors of protein arginine deiminase 1 and methods of preparation and use thereof” (University of Massachusetts, priority 2019, dated 2025)
